This is an account of results in patent publication US20260227408A1, “Compositions and Methods for Modulation of Immune Responses” (Flagship Pioneering Innovations VI, LLC, priority 2022, published 2026).

In data set [1] the test system is Interferon Regulatory Factor (IRF) pathway in THP-1 dual reporter cells. In words: THP-1 dual reporter assay (IRF-Lucia luciferase) with TLR agonists. Type of data set: cell-based. As for the experimental part:
(§1) To determine the effect of the Target Protein on TLR activity, the Target Protein, irrelevant proteins and controls were applied+/−established TLR agonists to a commercial reporter cell line which monitors the two main signal transduction pathways that respond to TLR activation. To determine which immune cells are most responsive to the Target Proteins, the Target Proteins were applied to Peripheral Blood Mononuclear Cells (PBMCs) and then 24 hours later the PBMCs were subjected to single cell RNA-seq using cell hashing.
Dual Reporter Assay: From example: NF-kB-SEAP and IRF-Lucia luciferase reporter monocyte (THP1) cells (InvivoGen) are cultured in RPMI 1640 media supplemented with HEPES buffer (10 mM), sodium pyruvate (1 mM), glucose (4.5 g/L), fetal bovine serum (10%), penicillin (100 U/mL), streptomycin ([…]), and 2-mercaptoethanol (0.05 mM). THP1 cells are treated with 100 ng/mL LPS (Sigma-Aldrich) for 24 hrs, the target protein (final conc. 10 μM), or left untreated.
After treatment, THP1 cells are cultured for 24 hrs and then assayed for reporter activity. Both reporter proteins are measurable in the cell culture supernatant when using QUANTI-Blue (InvivoGen), a SEAP detection reagent, and QUANTI-Luc (InvivoGen), a luciferase detection reagent. QUANTI-Blue is a colorimetric enzyme assay developed to determine any alkaline phosphatase activity in a biological sample, such as cell culture supernatant. QUANTI-Luc is a lyophilized assay reagent containing all the components required to quantitatively measure the activity of Lucia Luciferase other coelenterazine-utilizing luciferases. Increased reporter activity after treatment with target protein is observed in cells where the target protein is immune stimulating. Additionally, decreased reporter activity after treatment with the target protein is observed in cells where the target protein is immune dampening.
(In a reporter assay the amount or activity of a reporter protein is the signal.)

For data set [2], the system named is Peripheral Blood Mononuclear Cells (PBMCs). The data set can be described thus: single cell RNA-seq of PBMCs treated with target protein. Type of data set: cell-based, human. The conditions noted are these: 24 hours, vs scrambled protein control, FIG. 5A, 5B. As for the experimental part:
as §1
scRNA-seq: From example: Shifts in cell populations after treatment with Target Proteins are assessed by single cell RNA-seq (scRNA-seq). Target proteins (e.g., listed in the Sequence Listing) are synthesized through Fluorenylmethyloxycarbonyl (Fmoc) protection group chemistry using Solid Phase Peptide Synthesis (SPPS). Human primary blood mononuclear cells are seeded at […] in each well of 12-well plate with 1 ml of RPMI-1640 (10% FBS). […]
Post sequencing, reads are aligned to the human reference genome (GENCODE34/GRCH38). Reads are demultiplexed using DNA-barcoded antibodies and run through quality control (g. doublets are removed, singlet cells are selected with less than 15% mitochondria contamination at RNA levels and reads contain higher than 500 genes). […]

Data set [3] concerns Raji cells (human B cell lymphoma). The data set can be described thus: pooled CRISPR KO screen: Raji cell killing by primary NK cells. Type of data set: cell-based. The conditions noted are these: CRISPR KO of the protein in Raji cells, 24 hours co-culture with primary NK cells; for co-stimulatory effect on NK cytotoxicity (loss of function inhibits Raji cell killing): Example 4; for inhibitory effect on NK cytotoxicity (loss of function potentiates Raji cell killing): Example 5. The procedure:
CRISPR system was used to generate a pooled KO library comprising 4,708 individual novel proteins within 2,127 lncRNAs and 998 known proteins in Raji cells (human B cell lymphoma). To understand the role of these proteins in modulation of NK cell cytotoxicity we conducted a cell killing assay using primary human NK cells. We examined the change in the initial library representation in Raji cells with the library representation after 24 hours of co-incubation with NK cells. We used known regulators of NK cell cytotoxicity as reference to establish hit significance.
CRISPR KO generation. CRISPR guide RNA library has been designed at ProFound Therapeutics to target 4,708 distinct predicted novel proteins localized within 2,127 lncRNA, 998 known proteins, including positive (inhibitors, for example B2M, TAP1, TAP2, HLA-DM) and negative (co-stimulators, for example, ICAM1, FAS, IL7, DGKE) of NK cell function, and 900 neutral controls (non-targeting and intergenic guide RNAs). The CRISPR guide RNA library was packaged into lentivirus, transduced into Raji Cas9 line at the MOI of 0.3 and selected using puromycin selection as described in [Sanjana N E, Shalem O, Zhang F. Nat. Methods. 2014 August; 11(8):783-4.
NK isolation and expansion. Primary human NK cells were isolated from frozen PBMCs using EasySep human NK cell isolation kit (StemCell, catalog #17955). Primary human NK cells were expanded using immunoCult NK cell expansion kit (StemCell, catalog #100-0711) following manufacturer protocol.
Screen setup. The screen was performed using 4 biological replicates. The NK cytotoxicity assay was performed by co-culturing 20 million Raji CRISPR KO library cells with 60 million primary NK cells for 24 hours in T75 tissue culture flask. NK cells were removed using positive CD56 selection kit (StemCell, catalog #17855). Dead cells were removed using EasySep dead cell removal (Annexin V) kit (StemCell, catalog #17899). Remaining Raji CRISPR KO library cells have been processed to extract genomic DNA. NGS library prep and illumina sequencing was performed on these cells and Raji cells prior to exposure to NK as described in [Sanjana N E, Shalem O, Zhang F. Nat. Methods. 2014 August; 11(8):783-4.
Data analysis. Screen analysis and interpretation was performed using ProFound Tx custom data analysis tools and confirmed with MAGeCK-VISPR as described in [Li W, Koster J, Xu H, Chen C H, Xiao T, Brown M, Liu S. Genome Biology 2015(281)].
Data analysis. Screen analysis and interpretation has been performed using ProFound Tx custom data analysis tools and confirmed with MAGeCK-VISPR as described in [Li W, Koster J, Xu H, Chen C H, Xiao T, Brown M, Liu S. Genome Biology 2015(281)].

The mark [4] stands for this setting: 10 μM, 24 hours, vs scramble peptide, FIG. 4.

As to “SEQ ID NO: 37413: Target Protein validated as a modulator of the innate immune response; toll-like receptor (TLR) inhibitor (MAAPSNKTELAWSPRLAA; listed as Homo sapiens)”, in data set [1] (setting [4]), the “IRF response, co-treatment with TLR1/2 agonist” value is listed as “inhibited”; the “IRF response, co-treatment with TLR2 agonist” value was “no significant effect”; the “IRF response, co-treatment with TLR3 agonist” value is reported as “no significant effect”; the “IRF response, co-treatment with TLR4 agonist” value is “inhibited”. Besides, in data set [1] (setting [4]), the “IRF response, co-treatment with TLR5 agonist” value is given as “no significant effect”; the “IRF response, co-treatment with TLR6/2 agonist” value is “inhibited”; the “IRF response, co-treatment with TLR7 agonist” value is given as “no significant effect”; the “IRF response, co-treatment with TLR8 agonist” value is on record as “no significant effect”. Besides, the “IRF response, co-treatment with TLR9 agonist” value in data set [1] (setting [4]) is on record as “no significant effect”. In data set [1] (THP-1 dual reporter cells, FIG. 3, FIG. 4), the “IRF signal transduction pathway response from several TLRs” value was “significantly blocks”. Moreover, the “relative IRF activity (reporter gene expression)” value in data set [1] (increasing peptide concentrations (0, 2.5, 5, 7.5, and 10 PM) in presence of LPS, 24 hours, FIG. 3) is listed as “inhibition”. Also, in data set [2], the “effect on T-cells, B-cells, and NK-cells (up- and downregulated genes, scRNA-seq)” value was “relatively small effects”; the “effect on active monocytes and dendritic cells (up- and downregulated genes, scRNA-seq)” value was “strongly affected”.

Turning to “SEQ ID NO: 33482: novel co-stimulatory ligand that potentiates NK-mediated cytotoxicity; lncRNA-encoded protein (VVTGSILLSLPITQHLPLKALPRPGLPPFKMSGSVQDLLLGHIALLGLVQVILPPQPPK; listed as Homo sapiens)”, the “co-stimulatory effect on NK cytotoxicity (loss of function inhibits Raji cell killing)” value in data set [3] is “strong phenotypes”.

“SEQ ID NO: 35586: novel inhibitory ligand that suppresses NK-mediated cytotoxicity; lncRNA encoded protein (MWQNLNGDISSLWVSSLLAFNQLFCLTAAGLGTAQPP; listed as Homo sapiens)”: the “inhibitory effect on NK cytotoxicity (loss of function potentiates Raji cell killing)” value in data set [3] is listed as “strong phenotypes”.

B1: SEQ ID NO: 2013: novel inhibitory ligand that suppresses NK-mediated cytotoxicity; lncRNA encoded protein (protein, listed as Homo sapiens)
chain: MLSEGKPIPRREGKTATTERTFAVPVWKEIGISWRGLASTAGLFKSSTSILEENNADSRKMACHFGMCLAALLIKGKVLFFTF
On to B1, for which the “inhibitory effect on NK cytotoxicity (loss of function potentiates Raji cell killing)” value in data set [3] is given as “strong phenotypes”.

B2: SEQ ID NO: 37776: novel co-stimulatory ligand that potentiates NK-mediated cytotoxicity; lncRNA-encoded protein (protein, listed as Homo sapiens)
chain: MACIYPTTFYTSLPTKSLNMGISLTTILILSVAVLLSTAAPPSCRECYQSLHYRGEMQQYFTYHTHIERSCYGNLIEECVESGKSYYKVKNLGVCGSRNGAICPRGKQWLCFTKIGQWGVNTQVLEDIKREQIIAKAKASKPTTPPENRPRHFHSFIQKL
As for B2, the “co-stimulatory effect on NK cytotoxicity (loss of function inhibits Raji cell killing)” value in data set [3] is given as “strong phenotypes”.

B3: SEQ ID NO: 35050: novel co-stimulatory ligand that potentiates NK-mediated cytotoxicity; lncRNA-encoded protein (protein, listed as Homo sapiens)
chain: IYAHVGTEESSVVAMFSPQELTGEGMGQDPSLCKASVTVMFQVFLMTVCLYLTVLLTNNLLGSKGQHLLSKAQEEFEEN
For the molecule B3, the “co-stimulatory effect on NK cytotoxicity (loss of function inhibits Raji cell killing)” value in data set [3] is “strong phenotypes”.

B4: SEQ ID NO: 36545: novel inhibitory ligand that suppresses NK-mediated cytotoxicity; lncRNA encoded protein (protein, listed as Homo sapiens)
chain: MPEDLLFLDAAAQGLYFMLWLLSFELSVAVSELLRFTGPWRILSYTVHWVLDMQSVPFIAFLENNN
B4: the “inhibitory effect on NK cytotoxicity (loss of function potentiates Raji cell killing)” value in data set [3] was “strong phenotypes”.
